Where a name gives a salt, the structure may show the parent alone. Where only a bound is given, the exact number is not on record here.

One test relates to C. mucofaciens. Kind of test: Tier 1 Anaerobic MIC Assay. The note with it: raw material, 37° C. overnight, O.D. 600. The format is cell-based, Corynebacterium mucofaciens (clinical isolate). The source says: (§1) Tier 1 Anaerobic MIC Assay
(§2) The data in Table 2 above was generated with the following test method. The purpose of this assay is to determine if a compound or formulation has an antimicrobial effect in vitro.
(§3) It is understood that when not specifically noted in this procedure: • a) All materials, reagents and equipment required for this procedure are of appropriate design and condition of cleanliness and/or sterility as determined by their intended use. • b) The operator has been trained in aseptic technique and has been qualified to perform the procedure and accurately interpret the results. • c) All media required for this procedure was manufactured by a reputable commercial source egg. Difco, Merck etc. and has been stored and prepared as per manufacturer's instructions. • d) All routine laboratory controls, including but not limited to, media function and growth promotion tests, verification of sterility and use of positive and negative controls are being conducted.
(§4) Procedure: (All procedures performed in anaerobic chamber except where noted)
1. […]
(§5) In row A of a 96 deep well plate pipette 180 ul of sterile BHI with 1% Tween 80 as a negative growth control. […] The next day read the O.D. 600 on a plate reader. […]

The next test has as its system S. epidermidis. Briefly: Tier 1 Anaerobic MIC Assay. The format is cell-based, Staphylococcus epidermidis (clinical isolate). The note with it: raw material, 37° C. overnight, O.D. 600.
Source text: as §1, §2, §3, §4
1. […]
as §5

Test [1] deals with two key underarm bacteria strains. Kind of test: Raw material microbial inhibition, verdict in words over both strains. The format is cell-based, Corynebacterium mucofaciens; Staphylococcus epidermidis. As to the method:
The Tier 1 Anaerobic MIC Assay test method to generate the data of Table 2 is described below.
as §1
The data in Table 2 above was generated with the following test method.
3. Microbial Strains • Staphylococcus epidermidis (clinical isolate) • Corynebacterium mucofaciens (clinical isolate)
4. Test Procedure • Inoculum Preparation • Prior to testing streak organisms for isolation on BHI with 1% Tween 80 plates, wrap with parafilm and place in 37° C. incubator. When isolated colonies appear remove one representative colony from each plate and place each in 5 ml of BHI with 1% Tween 80 media. Incubate at 37° C. with shaking overnight. Inoculate 20 ml BHI with 1% Tween 80 (per 96 deep well plate to be tested) with 20 ul of the overnight culture (1-1000 dilution). • Master Plate Preparation • Compounds/formulations to be tested are diluted across a 96 deep well plate as shown below in Table 3 (for a 1% stock solution). […] 800 ul each 1% stock solution+positive control are added to wells C1 through H1. […] 400 ul is then removed from #1 well added to the #2 well and mixed. This is then continued across the plate resulting in a 50% dilution between wells across the plate (this can be easily accomplished with an automatic 8 channel Matrix pipette set to withdraw, dispense and mix).
In row A of a 96 deep well plate pipette 180 ul of sterile BHI with 1% Tween 80 as a negative growth control. All other wells receive 180 ul of inoculum. From the master plate introduce 20 ul to the corresponding row in the test plate using an 8-channel pipette. Loaded plates are placed on a plate shaker in the 37° C. incubator and incubated overnight. The next day read the O.D. 600 on a plate reader. The MIC is the last well from the right that has no bacterial growth.

With `Cc1cc(CC(C)CC(C)(C)C)n(O)c(=O)c1.NCCO` (stereo not drawn) [100 mg/ml piroctone olamine in H2O, piroctone olamine], the “microbial inhibition concentration (MIC)” value with C. mucofaciens is given as < 5 ppm; with S. epidermidis, 10 ppm. Further, the “performance against the bacteria as raw materials (in words)” value (shortened to “performance against the bacteria”) in test [1] was “perform particularly well”. For the molecule `CCOC(=O)CC(O)(CC(=O)OCC)C(=O)OCC` [100% Triethyl citrate, Triethyl citrate], the “performance against the bacteria” value in test [1] is “performing well”. The same measure, in the same setting: the value for `O=C([O-])[O-].[Ca+2]` [Ca Carbonate 50 mg/ml H2O ins, calcium carbonate] was “performing moderately well”; that for `CC(C)=CCCC(C)=CC=O` [Citral 96% ETOH, Citral] was “performing well”; that for `COC(=O)CCC(=O)OC` [Dimethyl Succinate 98% ETOH, Dimethyl Succinate] was “performing well”. Take `C=CCc1ccc(O)c(OC)c1` [Eugenol 99% ETOH, Eugenol]: in test [1], the “performance against the bacteria” value was “performing well”. On to `N=C(N)c1ccc(OCCCCCCOc2ccc(C(=N)N)cc2)cc1` [Hexamidine 36 mg/ml H2O, Hexamidine], for which the “microbial inhibition concentration (MIC)” value in the test on C. mucofaciens is <2 ppm; with S. epidermidis, 7 ppm. For the same molecule, the “performance against the bacteria” value in test [1] is “perform particularly well”. For the molecule `C=CCCCCCCCCC(=O)N[C@@H](Cc1ccccc1)C(=O)O` [Sepiwhite 40 mg/ml H2O ins], the “performance against the bacteria” value in test [1] was “performing well”.

These data come from patent publication US11833232B2, “Deodorant compositions with natural wax” (The Procter & Gamble Company, priority 2020, dated 2023).
